The target of assay [1] is T1, Human Ganglion (Homo sapiens, UniProt P30926+P32297).
T1 construct: endogenous in cells
The assay is described as follows: Competition binding to receptors in membrane preparations, human ganglion subtype ([3H]-epibatidine). The protocol:
(§1) SH-EP1/human α4β2 (Eaton et al., 2003), SH-EP1/human α4β4 (Gentry et al., 2003), SH-EP1/α6β3β4α5 (Grinevich et al., 2005), TE671/RD and SH-SY5Y cell lines (obtained from Dr. Ron Lukas, Barrow Neurological Institute) were maintained in proliferative growth phase in Dulbecco's modified Eagle's medium (Gibco/BRL) with 10% horse serum (Gibco BRL), 5% fetal bovine serum (HyClone, Logan Utah), 1 mM sodium pyruvate, 4 mM L-glutamine. For maintenance of stable transfectants, the α4β2 and α4β4 cell media was supplemented with 0.25 mg/mL zeocin and 0.13 mg/mL hygromycin B. Selection was maintained for the α6β3β4α5 cells with 0.25 mg/mL of zeocin, 0.13 mg/mL of hygromycin B, 0.4 mg/mL of geneticin, and 0.2 mg/mL of blasticidin. HEK/human α7/RIC3 cells (obtained from J. Lindstrom, U. Pennsylvania) were maintained in proliferative growth phase in Dulbecco's modified Eagle's medium (Gibco/BRL) with 10% fetal bovine serum (HyClone, Logan Utah), 1 mM sodium pyruvate, 4 mM L-glutamine, 0.4 mg/mL geneticin; 0.2 mg/ml hygromycin B.
(§2) Cells were harvested in ice-cold PBS, pH 7.4, then homogenized with a polytron (Brinkmann Instruments, Westbury, N.Y.). Homongenates were centrifuged at 40,000 g for 20 minutes (4° C.). The pellet was resuspended in PBS and protein concentration determined using the Pierce BCA Protein Assay kit (Pierce Biotechnology, Rockford, Ill.).
(§3) Binding to nicotinic receptors was assayed on membranes using standard methods adapted from published procedures (Lippiello and Fernandes, 1986; Davies et al., 1999). In brief, membranes were reconstituted from frozen stocks (approximately 0.2 mg protein) and incubated for 2 h on ice in […] assay buffer (PBS) in the presence of competitor compound (0.001 nM to […]) and radioligand. [^3H]-nicotine (L-(−)-[N-methyl-3H]-nicotine, 69.5 Ci/mmol, Perkin-Elmer Life Sciences) was used for human α4β2 binding studies. [^3H]-epibatidine (52 Ci/mmol, Perkin-Elmer Life Sciences) was used for binding studies at the other receptor subtypes. Incubation was terminated by rapid filtration on a multimanifold tissue harvester (Brandel, Gaithersburg, Md.) using GF/B filters presoaked in 0.33% polyethyleneimine (w/v) to reduce non-specific binding. Filters were washed 3 times and the radioactivity retained was determined by liquid scintillation counting.
(§4) Binding data were expressed as percent total control binding. Replicates for each point were averaged and plotted against the log of drug concentration. The IC50 (concentration of the compound that produces 50% inhibition of binding) was determined by least squares non-linear regression using GraphPad Prism software (GraphPAD, San Diego, Calif.). Ki was calculated using the Cheng-Prusoff equation (Cheng and Prusoff, 1973).

The target in assay [2] is Rat Ganglion (Rattus norvegicus, UniProt P04757+P12392). The assay is described as follows: Competition binding to receptors in membrane preparations, rat ganglion subtype ([3H]-epibatidine). The protocol:
as §3, §4

In assay [3] the target is T2, Human α4β2 (Homo sapiens, UniProt P17787+P43681).
T2 construct: expressed in transfected cells; obtained from Dr. Ron Lukas, Barrow Neurological Institute
The assay is described as follows: Competition binding to receptors in membrane preparations, human α4β2 ([3H]-nicotine). As to the method:
as §1, §2, §3, §4

For assay [4], the target named is T3, Human α7 nAChR (Homo sapiens, UniProt P36544).
T3 construct: expressed in transfected cells; host or cells: HEK cells co-expressing RIC3 (from J. Lindstrom, U. Pennsylvania)
Briefly: Competition binding to receptors in membrane preparations, human α7 ([3H]-epibatidine). As to the method:
as §1, §2, §3, §4

Where two headings read alike, the source gives them in different places.

Broadly, the Ki is the equilibrium dissociation constant of an inhibitor or competing ligand from its target. `CN[C@@H](C)C/C=C/c1cnc(Cl)c(O[C@H]2CCN(C(=O)C(C)(C)C)C2)c1`: the Ki in assay [1] amounted to 4.8 µM; in assay [2] it was 11 µM; in assay [3] (read-out: Human α4β2 Ki) it was 0.0067 µM; in assay [4], 39 µM.
The like results for `CN[C@@H](C)C/C=C/c1cncc(O[C@H]2CCN(C(=O)C3CCC3)C2)c1` were, in that order, 27 µM, 17 µM, 0.018 µM and 66 µM.
Turning to `CN[C@@H](C)C/C=C/c1cncc(O[C@H]2CCN(C(=O)C3CCCC3)C2)c1`, the Ki in assay [1] came out at 13 µM; in assay [2], 6.9 µM; in assay [3] (read-out: Human α4β2 Ki) it was 0.0078 µM; in assay [4], 85 µM.
As for `CN[C@@H](C)C/C=C/c1cnc(Cl)c(O[C@H]2CCN(C(=O)C3CCCC3)C2)c1`, the Ki in assay [1] is 7.6 µM; in assay [2], 55 µM; in assay [3] (read-out: Human α4β2 Ki), 0.0021 µM; in assay [4], 160 µM.
For `CN[C@@H](C)C/C=C/c1cnc(Cl)c(O[C@H]2CCN(C(=O)CC(C)(C)C)C2)c1`, the inhibitory constant (Ki) in assay [1] was 15 µM; in assay [2] it was 11 µM; in assay [3] (read-out: Human α4β2 Ki) it was 0.0064 µM; in assay [4] it was 48 µM.
Consider `CN[C@@H](C)C/C=C/c1cncc(O[C@H]2CCN(C(=O)CC(F)(F)F)C2)c1`, for which the Ki in assay [1] is 5.4 µM; in assay [2] it was 6.8 µM; in assay [3] (read-out: Human α4β2 Ki), 0.003 µM; in assay [4], 68 µM.
Regarding `CN[C@@H](C)C/C=C/c1cncc(O[C@H]2CCN(C(=O)CC3CCCC3)C2)c1`, the Ki came to 26 µM in assay [1], 11 µM in assay [2], 0.0086 µM in assay [3] (read-out: Human α4β2 Ki) and 49 µM in assay [4].
Consider `CN[C@@H](C)C/C=C/c1cnc(Cl)c(O[C@H]2CCN(C(=O)CC3CCCC3)C2)c1`, for which the inhibition constant Ki came to 2.5 µM in assay [1], 4 µM in assay [2], 0.0061 µM in assay [3] (read-out: Human α4β2 Ki) and 36 µM in assay [4].
The matching figures for `CN[C@@H](C)C/C=C/c1cncc(O[C@H]2CCN(C(=O)CCC(F)(F)F)C2)c1`: 18 µM, 33 µM, 0.011 µM and 49 µM.
With `CN[C@@H](C)C/C=C/c1cncc(O[C@H]2CCN(C(=O)c3ccc(F)cc3)C2)c1`, the inhibition constant Ki is 14 µM in assay [1], 190 µM in assay [2], 0.0052 µM in assay [3] (read-out: Human α4β2 Ki) and 58 µM in assay [4].
The matching figures for `CN[C@@H](C)C/C=C/c1cnc(Cl)c(O[C@H]2CCN(C(=O)c3ccc(F)cc3)C2)c1`: 16 µM, 5.9 µM, 0.0015 µM and 98 µM.
Regarding `CN[C@@H](C)C/C=C/c1cncc(O[C@@H]2CCN(C(=O)C(C)C)C2)c1`, the inhibition constant (Ki) came to 11 µM in assay [1], 50 µM in assay [2], 0.009 µM in assay [3] (read-out: Human α4β2 Ki) and 35 µM in assay [4].
The like results for `CN[C@@H](C)C/C=C/c1cncc(O[C@@H]2CCN(C(=O)c3ccc(F)cc3F)C2)c1` were, in that order, 3 µM, 19 µM, 0.0059 µM and 41 µM.
With `CN[C@@H](C)C/C=C/c1cncc(O[C@@H]2CCN(C(=O)C(C)(C)C)C2)c1`, the Ki worked out at 21 µM in assay [1], 100 µM in assay [2], 0.017 µM in assay [3] (read-out: Human α4β2 Ki) and 51 µM in assay [4].
The matching figures for `CN[C@@H](C)C/C=C/c1cncc(O[C@@H]2CCN(C(=O)C3CCC3)C2)c1`: 26 µM, 45 µM, 0.0061 µM and 58 µM.
The matching figures for `CN[C@@H](C)C/C=C/c1cncc(O[C@@H]2CCN(C(=O)C3CCCC3)C2)c1`: 14 µM, 28 µM, 0.0074 µM and 26 µM.
For `CN[C@@H](C)C/C=C/c1cnc(Cl)c(O[C@@H]2CCN(C(=O)CCC(F)(F)F)C2)c1` [drawing 62], the Ki in assay [1] was determined as 7.4 µM; in assay [2] it was 15 µM; in assay [3] it was 0.0014 µM; in assay [4] it was 55 µM.

The record behind these values is patent publication US20150119378A1, “AZETIDINYLOXY-, PYRROLIDINYLOXY-, AND PIPERIDINYLOXY-SUBSTITUTED METANICOTINES AS NEURONAL NICOTINIC ACETYLCHOLINE RECEPTOR LIGANDS” (priority 2013, published 2015).
